Assays:
human mAChRM1 [1] = target: T1, human mAChRM1 (Homo sapiens, UniProt P11229); test: mAChR M1 cell-based functional assay (calcium mobilization), positive allosteric modulator activity: increase in the EC20 acetylcholine response; details: for Emax: PAM mode; for EC50: read-out: PAM Activity Human M1 EC50
T1 construct: host or cells: CHO-K1
T1 sequence (P11229 1-460): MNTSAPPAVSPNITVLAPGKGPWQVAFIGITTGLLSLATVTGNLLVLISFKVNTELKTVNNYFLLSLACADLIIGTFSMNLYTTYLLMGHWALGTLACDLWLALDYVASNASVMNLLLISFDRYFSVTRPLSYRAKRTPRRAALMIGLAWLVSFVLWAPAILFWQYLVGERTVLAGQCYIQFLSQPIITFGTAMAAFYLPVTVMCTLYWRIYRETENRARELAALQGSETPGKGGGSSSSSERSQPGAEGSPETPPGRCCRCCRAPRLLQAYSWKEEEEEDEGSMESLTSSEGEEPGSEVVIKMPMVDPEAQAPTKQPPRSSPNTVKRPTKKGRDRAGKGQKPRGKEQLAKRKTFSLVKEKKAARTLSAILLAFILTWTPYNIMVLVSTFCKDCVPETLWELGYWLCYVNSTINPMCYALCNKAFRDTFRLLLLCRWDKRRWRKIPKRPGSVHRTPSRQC
Outline: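 Potentiation is scored as the rise in an EC20 acetylcholine-evoked calcium signal across 11-point (1:3) compound series, fitted with a four-parameter logistic equation to give EC50 and Emax. Read-out is Fluo-4 fluorescence ratio in hM1-transfected CHO-K1 cells, measured kinetically on FDSS.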

human mAChRM1 [2] = target: T1, human mAChRM1; test: mAChR M1 cell-based functional assay (calcium mobilization), agonist activity upon compound addition, Emax relative to acetylcholine maximum; details: for Agonist Activity Human M1 EC50 / EC50: calcium mobilization upon compound addition; for Emax: relative to the maximum for acetylcholine
Outline: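 Emax is given as a percentage of the maximal acetylcholine response, from four-parameter curves of compound-evoked calcium mobilization. Human M1-transfected CHO-K1 cells carried Fluo-4 dye, and compound (11 concentrations, 1:3 steps) was applied at 4 s of a 300 s kinetic fluorescence recording.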

[3] = increase in the EC20 acetylcholine response

Row | SMILES | Emax (human mAChRM1 [1]) | EC50 (human mAChRM1 [1]; [3]) | Agonist Activity Human M1 EC50 (human mAChRM1 [2]) | PAM Activity Human M1 EC50 (human mAChRM1 [1]; [3]) | EC50 (human mAChRM1 [2]) | Emax (human mAChRM1 [2])
1 | CC(C)(O)c1ccc(-c2ccc(CN3Cc4ncccc4C3=O)c(F)c2)c2ccccc12 [Compound 73, 6-(2-fluoro-4-(4-(2-hydroxypropan-2-yl)naphthalen-1-yl)benzyl)-6,7-dihydro-5H-pyrrolo[3,4-b]pyridin-5-one] | 58% | ≥ 10000 nM | inactive |  |  | 
2 | Cc1cc(-c2cc(C(C)(C)O)cc3nn[nH]c23)cc(F)c1CN1Cc2ncccc2C1=O [Compound 74, 6-(2-fluoro-4-(5-(2-hydroxypropan-2-yl)-1H-benzo[d][1,2,3]triazol-7-yl)-6-methylbenzyl)-6,7-dihydro-5H-pyrrolo[3,4-b]pyridin-5-one] | 52% | ≥ 10000 nM | inactive |  |  | 
3 | CC(C)(O)c1cc(-c2ccc(CN3Cc4ncccc4C3=O)c(F)c2)c2[nH]nnc2c1 [Compound 75, 6-(2-fluoro-4-(5-(2-hydroxypropan-2-yl)-1H-benzo[d][1,2,3]triazol-7-yl)benzyl)-6,7-dihydro-5H-pyrrolo[3,4-b]pyridin-5-one] | 45% | ≥ 10000 nM | inactive |  |  | 
4 | Cn1cc2c(-c3cc(F)c(CN4Cc5ncccc5C4=O)c(C(F)(F)F)c3)ccc(C(C)(C)O)c2n1 [Compound 76, 6-(2-fluoro-4-(7-(2-hydroxypropan-2-yl)-2-methyl-2H-indazol-4-yl)-6-(trifluoromethyl)benzyl)-6,7-dihydro-5H-pyrrolo[3,4-b]pyridin-5-one] | 80% | 439 nM | inactive |  |  | 
5 | CN(C)c1cc(-c2ccc(C(C)(C)O)c3nn(C)cc23)cc(F)c1CN1Cc2ncccc2C1=O [Compound 77, 6-(2-(dimethylamino)-6-fluoro-4-(7-(2-hydroxypropan-2-yl)-2-methyl-2H-indazol-4-yl)benzyl)-6,7-dihydro-5H-pyrrolo[3,4-b]pyridin-5-one] | 73% | 3870 nM | inactive |  |  | 
6 | Cn1cc2c(-c3cc(F)c(CN4Cc5ncccc5C4=O)c(N4CCC4)c3)ccc(C(C)(C)O)c2n1 [Compound 78, 6-(2-(azetidin-1-yl)-6-fluoro-4-(7-(2-hydroxypropan-2-yl)-2-methyl-2H-indazol-4-yl)benzyl)-6,7-dihydro-5H-pyrrolo[3,4-b]pyridin-5-one] | 81% | 583 nM | inactive |  |  | 
7 | Cn1ncc2c(-c3cc(F)c(CN4Cc5ncccc5C4=O)c(F)c3)ccc(C(C)(C)O)c21 [Compound 79, 6-(2,6-difluoro-4-(7-(2-hydroxypropan-2-yl)-1-methyl-1H-indazol-4-yl)benzyl)-6,7-dihydro-5H-pyrrolo[3,4-b]pyridin-5-one] | 76% | 1210 nM | inactive |  |  | 
8 | Cn1cc2c(-c3cc(F)c(CN4Cc5ncccc5C4=O)c(F)c3)ccc(C(C)(O)C3CC3)c2n1 (centres unmarked) [Compound 80, 6-(4-(7-(1-cyclopropyl-1-hydroxyethyl)-2-methyl-2H-indazol-4-yl)-2,6-difluorobenzyl)-6,7-dihydro-5H-pyrrolo[3,4-b]pyridin-5-one] | 83% | 373 nM | inactive |  |  | 
9 | CCC(O)(c1ccc(-c2cc(F)c(CN3Cc4ncccc4C3=O)c(F)c2)c2cn(C)nc12)C(F)(F)F (centres unmarked) [Compound 81, 6-(2,6-difluoro-4-(2-methyl-7-(1,1,1-trifluoro-2-hydroxybutan-2-yl)-2H-indazol-4-yl)benzyl)-6,7-dihydro-5H-pyrrolo[3,4-b]pyridin-5-one] | 71% | 4470 nM | inactive |  |  | 
10 | CCC(C)(O)c1ccc(-c2cc(F)c(CN3Cc4ncccc4C3=O)c(F)c2)c2cn(C)nc12 (centres unmarked) [Compound 82, 6-(2,6-difluoro-4-(7-(2-hydroxybutan-2-yl)-2-methyl-2H-indazol-4-yl)benzyl)-6,7-dihydro-5H-pyrrolo[3,4-b]pyridin-5-one] | 80% | 138 nM | inactive |  |  | 
11 | CC(C)(O)c1cc(-c2cc(F)c(CN3Cc4ncccc4C3=O)c(F)c2)c2[nH]nnc2c1 [Compound 83, 6-(2,6-difluoro-4-(5-(2-hydroxypropan-2-yl)-1H-benzo[d][1,2,3]triazol-7-yl)benzyl)-6,7-dihydro-5H-pyrrolo[3,4-b]pyridin-5-one] | 39% | ≥ 10000 nM | inactive |  |  | 
12 | Cn1cc2c(-c3cc(F)c(CN4Cc5ncccc5C4=O)c(F)c3)ccc(C(O)(C3CC3)C3CC3)c2n1 [Compound 84, 6-(4-(7-(dicyclopropyl(hydroxy)methyl)-2-methyl-2H-indazol-4-yl)-2,6-difluorobenzyl)-6,7-dihydro-5H-pyrrolo[3,4-b]pyridin-5-one] | 84% | 1440 nM | inactive |  |  | 
13 | Cc1cc(-c2ccc(C(O)(C3CC3)C3CC3)c3nn(C)cc23)cc(F)c1CN1Cc2ncccc2C1=O [Compound 85, 6-(4-(7-(dicyclopropyl(hydroxy)methyl)-2-methyl-2H-indazol-4-yl)-2-fluoro-6-methylbenzyl)-6,7-dihydro-5H-pyrrolo[3,4-b]pyridin-5-one] | 81% | 1700 nM | inactive |  |  | 
14 | Cn1cc2cc(C(C)(C)O)cc(-c3cc(F)c(CN4Cc5ncccc5C4=O)c(F)c3)c2n1 [Compound 86, 6-(2,6-difluoro-4-(5-(2-hydroxypropan-2-yl)-2-methyl-2H-indazol-7-yl)benzyl)-6,7-dihydro-5H-pyrrolo[3,4-b]pyridin-5-one] |  |  | inactive | inactive |  | 
15 | CC(C)(O)c1ccc(-c2cc(F)c(CN3Cc4ncccc4C3=O)c(F)c2)c2c1OCO2 [Compound 87, 6-(2,6-difluoro-4-(7-(2-hydroxypropan-2-yl)benzo[d][1,3]dioxol-4-yl)benzyl)-6,7-dihydro-5H-pyrrolo[3,4-b]pyridin-5-one] | 73% | 1000 nM | inactive |  |  | 
16 | Cn1cc2cc(-c3cc(F)c(CN4Cc5ncccc5C4=O)c(C4CC4)c3)cc(C(C)(C)O)c2n1 [Compound 88, 6-(2-cyclopropyl-6-fluoro-4-(7-(2-hydroxypropan-2-yl)-2-methyl-2H-indazol-5-yl)benzyl)-6,7-dihydro-5H-pyrrolo[3,4-b]pyridin-5-one] | 82% | 398 nM |  |  | ≥ 10000 nM | 21%
17 | Cn1cc2c(-c3cc(F)c(CN4Cc5ncccc5C4=O)c(F)c3)ccc(C3(O)COC3)c2n1 [Compound 89, 6-(2,6-Difluoro-4-(7-(3-hydroxyoxetan-3-yl)-2-methyl-2H-indazol-4-yl)benzyl)-6,7-dihydro-5H-pyrrolo[3,4-b]pyridin-5-one] | 82% | 254 nM |  |  | 6840 nM | 11%
18 | Cn1cc2c(-c3cc(F)c(CN4Cc5ncccc5C4=O)c(F)c3)ccc(C3(O)CCOC3)c2n1 (centres unmarked) [Compound 90, 6-(2,6-difluoro-4-(7-(3-hydroxytetrahydrofuran-3-yl)-2-methyl-2H-indazol-4-yl)benzyl)-6,7-dihydro-5H-pyrrolo[3,4-b]pyridin-5-one] | 83% | 116 nM |  |  | 2460 nM | 20%
19 | Cn1cc2c(-c3cc(F)c(CN4Cc5ncccc5C4=O)c(F)c3)ccc(C3(O)CCCC3)c2n1 [Compound 91, 6-(2,6-difluoro-4-(7-(1-hydroxycyclopentyl)-2-methyl-2H-indazol-4-yl)benzyl)-6,7-dihydro-5H-pyrrolo[3,4-b]pyridin-5-one] | 72% | 254 nM |  |  | 7030 nM | 15%
20 | Cn1cc2c(-c3cc(F)c(CN4Cc5ncccc5C4=O)c(F)c3)ccc(C3(O)CCOCC3)c2n1 [Compound 92, 6-(2,6-difluoro-4-(7-(4-hydroxytetrahydro-2H-pyran-4-yl)-2-methyl-2H-indazol-4-yl)benzyl)-6,7-dihydro-5H-pyrrolo[3,4-b]pyridin-5-one] | 81% | 76 nM |  |  | 1400 nM | 22%
21 | [2H]C([2H])([2H])C(O)(c1ccc(-c2cc(F)c(CN3Cc4ncccc4C3=O)c(F)c2)c2cn(C)nc12)C([2H])([2H])[2H] [Compound 93, 6-(2,6-difluoro-4-(7-(2-hydroxypropan-2-yl-1,1,1,3,3,3-d6)-2-methyl-2H-indazol-4-yl)benzyl)-6,7-dihydro-5H-pyrrolo[3,4-b]pyridin-5-one] | 83% | 76 nM |  |  | 1870 nM | 22%
22 | C[C@H](c1c(F)cc(-c2ccc(C(C)(C)O)c3nn(C)cc23)cc1F)N1Cc2ncccc2C1=O [Compound 94, (R)-6-(1-(2,6-difluoro-4-(7-(2-hydroxypropan-2-yl)-2-methyl-2H-indazol-4-yl)phenyl)ethyl)-6,7-dihydro-5H-pyrrolo[3,4-b]pyridin-5-one] | 60% | 1270 nM | inactive |  |  | 

— US20260138978A1, “POSITIVE ALLOSTERIC MODULATORS OF THE MUSCARINIC ACETYLCHOLINE RECEPTOR M1” (Vanderbilt University, priority 2022, published 2026)
